Experimental data from ChEMBL document CHEMBL3046862, “Structure-activity relationship of aliphatic compounds for nematicidal activity against pine wood nematode (Bursaphelenchus xylophilus)” (2010).

Legend:
Assay type in all cases: functional
[1] = system: Bursaphelenchus xylophilus; assay: Nematicidal activity against Bursaphelenchus xylophilus at 0.5 mg/ml measured after 48 hr under microscope
[2] = system: Bursaphelenchus xylophilus; assay: Nematicidal activity against Bursaphelenchus xylophilus assessed as mortality at 0.0625 mg/ml measured after 48 hr under microscope
[3] = system: Bursaphelenchus xylophilus; assay: microbe, parasite or virus in culture; conditions: 48 h, at 0.125 mg/mL
Description: Nematicidal activity against Bursaphelenchus xylophilus assessed as mortality at 0.125 mg/ml measured after 48 hr under microscope

[4] = system: Bursaphelenchus xylophilus; assay: Nematicidal activity against Bursaphelenchus xylophilus assessed as mortality at 0.25 mg/ml measured after 48 hr under microscope

SMILES | mortality at 500 µg/mL [1] [%] | mortality at 62.5 µg/mL [2] [%] | mortality at 125 µg/mL [3] [%] | mortality at 250 µg/mL [4] [%]
CCCCCCCCCC/C=C/C=O | 4.9 |  |  | 
CCCCCC [HEXANE] | 4.4 |  |  | 
CCCCCCCCCCCC [DODECANE] | 1.6 |  |  | 
CCCCCCCCCCO [DECANOL] | 100 | 15.6 | 100 | 100
CCCCCCCC/C=C/CO | 100 | 45.1 | 100 | 100
CCCCCCCCCCC/C=C/C=O | 3.3 |  |  | 
CCCCCCCCCCCCCC(=O)O [MYRISTIC ACID] | 3.8 |  |  | 
CCCCCCCCCCCO [UNDECANOL] | 100 | 98.3 | 99.4 | 100
CCCCCCCCCCCOC(C)=O [UNDECYLACETATE] | 2.3 |  |  | 
CCCCCCCCCCCCC(=O)O [TRIDECANOATE] | 4.4 |  |  | 
CCCC/C=C/C=O | 100 | 18 | 76.3 | 97.8
CCCCCCCCCCCCOC(C)=O [DODECYLACETATE] | 1.7 |  |  | 
CCCCCC=O [HEXANAL] | 4.2 |  |  | 
CCCCCCCCCCCCCC | 1.7 |  |  | 
CCCCCCCCC=O [NONANAL] | 14.2 |  |  | 
CCCCCCCCCCCCCC=O [TETRADECANAL] | 3.5 |  |  | 
CCCCCCCCCO [NONANOL] | 100 | 4.7 | 81 | 100
CCCCCCCC [OCTANE] | 3.8 |  |  | 
CCCCCCCOC(C)=O [HEPTYLACETATE] | 7.4 |  |  | 
CCCCCCCCCC [DECANE] | 1.6 |  |  | 
CCCCCCCCCCCCCCOC(C)=O | 0.9 |  |  | 

SMILES | mortality at 500 µg/mL [1] [%] | mortality at 62.5 µg/mL [2] [%] | mortality at 125 µg/mL [3] [%] | mortality at 250 µg/mL [4] [%]
CCCCCCCCCC=O [DECANAL] | 7.9 |  |  | 
CCCCCCCCCCC | 1.6 |  |  | 
CCCCCCCCC/C=C/CO | 4.7 |  |  | 
CCCCCC(=O)O [HEXANOATE] | 31.3 |  |  | 
CCCCCCCCCCC/C=C/CO | 2.6 |  |  | 
CCCCCCC(=O)O [HEPTANOATE] | 100 |  |  | 53.7
CCCCCCCCOC(C)=O [OCTYL ACETATE] | 4.9 |  |  | 
CCCCCCCCC [NONANE] | 2.3 |  |  | 
CCCCCCCCCCCCCOC(C)=O [TRIDECYLACETATE] | 1.4 |  |  | 
CCCCCC/C=C/CO | 100 |  | 45.5 | 100
CCCCCCCC/C=C/C=O | 24.8 |  |  | 
CCCCCCCCC(=O)O [NONANOATE] | 100 | 40.1 | 100 | 100
CCCCCCCCCCOC(C)=O [DECYLACETATE] | 1.6 |  |  | 
CCCCCCCCCCCCC | 3.3 |  |  | 
CCCCCCCCC/C=C/C=O | 5.1 |  |  | 
CCCCCCCCCCCC(=O)O [DODECANOATE] | 1.9 |  |  | 
CCCCCCCCCCCC=O [DODECANAL] | 6.6 |  |  | 
CCCCCCCO [1-HEPTANOL] | 29.8 |  |  | 
CCCCCCC=O [HEPTANAL] | 6 |  |  | 
CCCCCCCCO [OCTANOL] | 100 |  |  | 17
CCCCCCC [HEPTANE] | 2.6 |  |  | 

SMILES | mortality at 500 µg/mL [1] [%] | mortality at 62.5 µg/mL [2] [%] | mortality at 125 µg/mL [3] [%] | mortality at 250 µg/mL [4] [%]
CCCCCCCCCCCCCCO [MYRISTYL ALCOHOL] | 4 |  |  | 
CCCCCCO [1-HEXANOL] | 12.6 |  |  | 
CCC/C=C/CO | 13 |  |  | 
CCCCC/C=C/C=O | 100 | 22.6 | 90.6 | 99
CCCCCCCCCCCCCO | 4.4 |  |  | 
CCCCCCCCCCC(=O)O [UNDECANOATE] | 98.5 |  | 51.3 | 96
CCCCCCCCCOC(C)=O [NONYLACETATE] | 3.1 |  |  | 
CCCCCCCC(=O)O [OCTANOIC ACID] | 100 |  | 50.1 | 98.9
CCCCCCOC(C)=O [HEXYL ACETATE] | 1.5 |  |  | 
CCCCCC/C=C/C=O [2-NONENAL] | 100 | 47.4 | 99.8 | 100
CCCCCCC/C=C/CO | 100 | 43.3 | 100 | 100
CCC/C=C/C=O | 95.6 |  | 22 | 83.1
CCCC/C=C/CO | 50.9 |  |  | 
CCCCCCCCCCC=O [UNDECANAL] | 7.4 |  |  | 
CCCCC/C=C/CO | 97.4 |  |  | 31.5
CCCCCCCCCC(=O)O [DECANOIC ACID] | 100 | 59.8 | 100 | 100
CCCCCCCCCCCCO [DODECANOL] | 3.1 |  |  | 
CCCCCCCCCC/C=C/CO | 3.5 |  |  | 
CCCCCCCCCCCCC=O [TRIDECANAL] | 7.6 |  |  | 
CCCCCCCC=O [OCTANAL] | 13.6 |  |  | 
